Reference: patent US20120010075A1 (priority 2009, published 2012)
Like-named read-outs stand apart in the source and are kept apart here.

Assays:
[1] = tested on: Leptosphaeria nodorum (LEPTNO); assay: Isolated metal-hydrazone complexes versus parent hydrazones, in vitro, Leptosphaeria nodorum (Example 31, Table 7); format: cell-based; details: Parastagonospora nodorum; 0.1 μg/mL; copper-minus medium; 72 h
[2] = tested on: Phytophthora infestans; format: in vivo, Phytophthora infestans on tomato; details: applied 24 h before inoculation, assessed 7 days after inoculation
[3] = tested on: Leptosphaeria nodorum (LEPTNO); assay: In vitro fungitoxicity of hydrazones with and without copper towards Leptosphaeria nodorum (Example 26); format: cell-based; details: 72 h at 25° C.; for inhibition of growth at 0.05 µg/mL: Parastagonospora nodorum, 72 h, copper-minus medium, read-out: LEPTNO % Inhn. Minus Copper Observed
[4] = tested on: Septoria tritici isolate USA-184; assay: In vitro fungitoxicity of hydrazones with and without copper towards Septoria tritici (Example 30, Table 5); format: cell-based; details: Zymoseptoria tritici, 0.05 μg/mL
[5] = tested on: Phytophthora capsici; assay: In vitro fungitoxicity of hydrazones with and without copper towards Phytophthora capsici (Example 28, Table 3); format: cell-based; details: 0.050 μg/mL, 48 h; for % Inhn Plus copper Observed: copper-plus AS medium (CuCl2, 50 μM); for inhibition of growth at 0.05 µg/mL: Phytophthora capsici, copper-minus AS medium, read-out: % Inhn Minus copper Observed
[6] = tested on: Ustilago maydis; assay: In vitro fungitoxicity of hydrazones with and without copper towards Ustilago maydis (Example 29, Table 4); format: cell-based; details: 1 μg/mL, 48 h; for % Inhn. Plus copper Observed: copper-plus medium (CuCl2, 10 μM); for inhibition of growth at 1 µg/mL: Mycosarcoma maydis, copper-minus medium, read-out: % Inhn. Minus copper Observed
[7] = tested on: Colletotrichum lagenarium; assay: Compound 16 and copper materials against cucumber anthracnose (Example 37, Tables 21-24); format: in vivo, Colletotrichum lagenarium on cucumber (Bush Pickle)
[8] = tested on: Alternaria solani; assay: Compound 16 and copper materials against tomato early blight (Example 37, Tables 17-20); format: in vivo, Alternaria solani on tomato (Outdoor Girl)
[9] = hydrazone 50 ppm + 50 μM CuCl2.2H2O, tomato
[10] = compound 0.05 μg/mL, copper-plus medium (CuCl2.2H2O)
[11] = Colby formula, CuCl2, read-out: % Inhibition Plus copper Predicted
[12] = copper-minus medium, 90 h, read-out: % Inhibition Minus copper Observed
[13] = copper-plus medium CuCl2, 90 h, read-out: % Inhibition Plus copper Observed
[14] = hydrazone 50 ppm with 50 μM CuCl2.2H2O, tomato late blight
[15] = test compound Concn. 0.05 μg/mL
[16] = copper-plus medium (CuCl2 10 μM), test compound Concn. 0.05 μg/mL

| Compound | inhibition at 0.1 µg/mL [1] | TLB % Control [2, 9] | inhibition of growth at 0.05 µg/mL ([3]; compound 0.05 μg/mL) | LEPTNO % Inhn. Plus Copper Observed [3, 10] | melting point | TLB % Control [2, 14] | inhibition of growth at 0.05 µg/mL [3, 15] | LEPTNO % Inhn. Plus Copper Observed [3, 16] | other results |
| --- | --- | --- | --- | --- | --- | --- | --- | --- | --- |
| C/C(=N\NC(=O)c1ccccc1)c1cc(Cl)cc(Cl)c1O [Example 60] | 23.3% | 85.0% | 7.3% | 97.5% | – | – | – | – | inhibition at 0.05 µg/mL [4, 11]: 20.6%; inhibition at 0.05 µg/mL [4, 12]: 20.6%; inhibition at 0.05 µg/mL [4, 13]: 94.8%; % Inhn Plus copper Observed [5]: 76.4%; inhibition of growth at 0.05 µg/mL [5]: 4.1%; % Inhn. Plus copper Observed [6]: 93.5%; inhibition of growth at 1 µg/mL [6]: 0% |
| COc1cccc(/C(C)=N/NC(=O)c2ccccc2)c1O [Example 299] | 18.6% | – | – | – | 146 to 148 °C | 74.0% | 0% | 97.9% | – |
| COc1cccc(/C(C)=N/NC(=O)c2cccc(C)c2)c1O [Example 301] | 3.5% | – | – | – | 121 to 123 °C | 82.0% | 0% | 97.9% | – |
| COc1cccc(/C(C)=N/NC(=O)c2ccc(C)cc2)c1O [Example 302] | 22.9% | – | – | – | 146 to 148 °C | 82.0% | 0% | 96.4% | – |
| COc1cccc(/C(C)=N/NC(=O)c2ccc(Cl)cc2)c1O [Example 305] | 27.1% | – | – | – | 168 to 170 °C | 61.0% | 0.5% | 98.3% | – |
| COc1cccc(/C(C)=N/NC(=O)c2ccccc2C)c1O [Example 300] | 2.5% | – | – | – | 208 to 209 °C | 70.0% | 0% | 97.2% | – |
| C/C(=N\NC(=O)c1ccccc1C)c1cc(Cl)cc(Cl)c1O [Example 137] | 27.2% | 74.0% | 4.5% | 98.5% | 226 to 230 °C | – | – | – | – |
| O=C(N/N=C/c1c(O)cccc1Cl)c1ccccc1 [Example 236] | 4.7% | 88.1% | 3.5% | 97.0% | 247 to 248 °C | – | – | – | – |
| C/C(=N\NC(=O)c1cccc(C)c1)c1cc(Cl)cc(Cl)c1O [Example 278] | 16.2% | 90.0% | 1.7% | 97.7% | 221 to 223 °C | – | – | – | – |
| O=C(N/N=C/c1c(C(F)(F)F)ccc(Cl)c1O)c1ccc(Cl)cc1 [Example 452] | 19.3% | – | – | – | 236 to 238 °C | 100.0% | 12.9% | 100.0% | – |
| O=C(N/N=C/c1cccc(C(F)(F)F)c1O)c1ccc(Cl)cc1 [Example 348] | 23.9% | – | – | – | 215 to 216 °C | 100.0% | 16.3% | 98.3% | – |
| Cc1ccc(C(=O)N/N=C/c2cc(Br)cc(F)c2O)cc1 [Example 411] | 32.1% | – | – | – | 228 to 229 °C | 85.0% | 8.2% | 97.9% | – |
| O=C(N/N=C/c1cc(Br)cc(F)c1O)c1ccc(C(F)(F)F)cc1 [Example 412] | 40.4% | – | – | – | 240 to 241 °C | 100.0% | 7.7% | 97.8% | – |
| O=C(N/N=C/c1cc(Cl)cc(C(F)(F)F)c1O)c1ccc(Cl)cc1 [Example 381] | 43.9% | – | – | – | 232 to 234 °C | 100.0% | 31.8% | 98.6% | – |
| C/C(=N\NC(=O)c1cccc(Cl)c1)c1cc(Cl)cc(Cl)c1O [Example 135] | 20.6% | 96.0% | 0.2% | 98.6% | 245 to 246 °C | – | – | – | – |
| O.O.O.O.O.O=S(=O)([O-])[O-].[Cu+2] [CuSO4•5H2O] | – | – | – | – | – | – | – | – | % Control of Cucumber Anthracnose ([7]; copper material 10 μM alone): 1.4%; % Control of Cucumber Anthracnose ([7]; copper material 50 μM alone): 0.0%; % Control of Cucumber Anthracnose ([7]; copper material 200 μM alone): 61.3%; % Control of Cucumber Anthracnose ([7]; copper material 400 μM alone): 75.7%; % Control of Cucumber Anthracnose ([7]; copper material 800 μM alone): 87.1%; % Control of Tomato Early Blight ([8]; copper material 10 μM alone): 0.0%; % Control of Tomato Early Blight ([8]; copper material 50 μM alone): 7.1%; % Control of Tomato Early Blight ([8]; copper material 200 μM alone): 54.4%; % Control of Tomato Early Blight ([8]; copper material 400 μM alone): 64.1%; % Control of Tomato Early Blight ([8]; copper material 800 μM alone): 71.6% |
| O=C(N/N=C/c1c(Cl)ccc(Cl)c1O)c1ccc(Cl)cc1 [Example 370] | 23.1% | – | – | – | 271 to 273 °C | 91.0% | 3.5% | 97.5% | – |
| O.O.[Cl][Cu][Cl] [CuCl2•2H2O] | – | – | – | – | – | – | – | – | % Control of Cucumber Anthracnose ([7]; copper material 10 μM alone): 9.6%; % Control of Cucumber Anthracnose ([7]; copper material 50 μM alone): 1.4%; % Control of Cucumber Anthracnose ([7]; copper material 200 μM alone): 37.2%; % Control of Cucumber Anthracnose ([7]; copper material 400 μM alone): 76.2%; % Control of Cucumber Anthracnose ([7]; copper material 800 μM alone): 90.0%; % Control of Tomato Early Blight ([8]; copper material 10 μM alone): 0.0%; % Control of Tomato Early Blight ([8]; copper material 50 μM alone): 0.0%; % Control of Tomato Early Blight ([8]; copper material 200 μM alone): 50.4%; % Control of Tomato Early Blight ([8]; copper material 400 μM alone): 72.5%; % Control of Tomato Early Blight ([8]; copper material 800 μM alone): 83.3% |
| O=C(N/N=C/c1c(O)cccc1Cl)c1ccc(Cl)cc1 [Example 403] | 12.1% | – | – | – | 273 to 277 °C | 97.0% | 0% | 97.3% | – |
| O=C(N/N=C/c1cc(C(F)(F)F)cc(C(F)(F)F)c1O)c1ccc(Cl)cc1 [Example 337] | 39.9% | – | – | – | 233 to 236 °C | 97.0% | 22.4% | 98.0% | inhibition at 0.05 µg/mL [4, 11]: 46.8%; inhibition at 0.05 µg/mL [4, 12]: 46.8%; inhibition at 0.05 µg/mL [4, 13]: 97.1%; % Inhn Plus copper Observed [5]: 42.1%; inhibition of growth at 0.05 µg/mL [5]: 4.7%; % Inhn. Plus copper Observed [6]: 97.8%; inhibition of growth at 1 µg/mL [6]: 22% |
| O=C(N/N=C/c1cccc(Cl)c1O)c1ccccc1 [Example 231] | 10.7% | 81.3% | 0% | 98.5% | 188 to 189 °C | – | – | – | – |
| C/C(=N\NC(=O)c1ccc(C)cc1)c1cc(Cl)cc(Cl)c1O [Example 279] | 19.9% | 96.0% | 5.1% | 98.6% | 262 to 264 °C | – | – | – | – |
| O=C(N/N=C/c1cc(C(F)(F)F)ccc1O)c1ccccc1 [Example 277] | 0.6% | 86.4% | 1.9% | 97.5% | 214 to 217 °C | – | – | – | inhibition at 0.05 µg/mL [4, 11]: 3.6%; inhibition at 0.05 µg/mL [4, 12]: 3.6%; inhibition at 0.05 µg/mL [4, 13]: 88%; % Inhn Plus copper Observed [5]: 88.2%; inhibition of growth at 0.05 µg/mL [5]: 0%; % Inhn. Plus copper Observed [6]: 83.5%; inhibition of growth at 1 µg/mL [6]: 1.7% |
| O=C(N/N=C/c1cc(Cl)ccc1O)c1ccccc1 [Example 20] | 14.7% | 96.5% | 2.8% | 96.5% | – | – | – | – | inhibition at 0.05 µg/mL [4, 11]: 0%; inhibition at 0.05 µg/mL [4, 12]: 0%; inhibition at 0.05 µg/mL [4, 13]: 95.3%; % Inhn Plus copper Observed [5]: 90.4%; inhibition of growth at 0.05 µg/mL [5]: 2.1%; % Inhn. Plus copper Observed [6]: 91.0%; inhibition of growth at 1 µg/mL [6]: 1.2% |
| O=C(N/N=C/c1cc(Cl)cc(C(F)(F)F)c1O)c1ccccc1 [Example 320] | 22.1% | – | – | – | 225 to 226 °C | 100.0% | 17.1% | 96.4% | inhibition at 0.05 µg/mL [4, 11]: 9.5%; inhibition at 0.05 µg/mL [4, 12]: 9.5%; inhibition at 0.05 µg/mL [4, 13]: 92.1%; % Inhn Plus copper Observed [5]: 81.4%; inhibition of growth at 0.05 µg/mL [5]: 2.9%; % Inhn. Plus copper Observed [6]: 95.2%; inhibition of growth at 1 µg/mL [6]: 0% |
| O=C(N/N=C/c1cc(C(F)(F)F)ccc1O)c1ccc(Cl)cc1 [Example 440] | 23.8% | – | – | – | 252 to 254 °C | 98.0% | 2.9% | 100.0% | – |
